{"source": "patent US20180003723A1", "about": "“METHODS AND SYSTEMS FOR […] DISORDERS” (OASIS DIAGNOSTICS CORPORATION, priority 2014, published 2018)", "key": {"[1]": {"test_system": "patients diagnosed with idiopathic central sleep apnea", "assay": "Hospital based clinical trial of zolpidem: follow-up polysomnogram and Epworth Sleepiness Scale", "assay_type": "in vivo, human", "method": "Idiopathic central sleep apnea was defined by central apnea and hypopnea index (CAHI)≧10 events per hour of sleep, and obstructive apnea/hypopnea index ≦5 events per hour of sleep. An apnea was defined as a cessation or reduction in peak oronasal airflow≧70% of baseline, lasting ≧15 s. Hypopnea was defined as a reduction in peak oronasal airflow ≧50%, ≧70% of baseline for ≧15 s, along with a ≧4% drop in SpO2 relative to pre-event baseline value. The apnea/hypopnea index was calculated for all events relative to total sleep time and documented separately for central and obstructive events. Central apneas and hypopneas comprised the central and obstructive apneas and hypopneas plus mixed apneas and hypopneas comprised the obstructive apnea-hypopnea index (OAHI). Exclusion criteria comprise such as clinical or echocardiographic diagnosis of systolic heart failure, diastolic cardiac dysfunction, or a history of transient ischemic attack or stroke. Those with a typical pattern of Cheyne Stokes respiration during sleep were also excluded. Patients with obstructive sleep apnea with an Apnea-Hypopnea Index of (AHI) ≧5 events per hour prior to continuous positive airway pressure device (CPAP) use, or a history of restless legs syndrome/periodic leg movements were also excluded. […] Patients with hypercapnic lung disease or those with obesity hypoventilation syndrome were also excluded. Subjects were given the Epworth Sleepiness Scale (ESS), and a physical exam followed by an 8-h diagnostic polysomnogram (PSG). […] Outpatient monitoring was conducted every four weeks to assess patients for side effects and for evaluation of daytime sleepiness, using the ESS. […] Nocturnal polysomnographic assessment using the Grass Aurora system was performed in a standard way consisting of an electroencephalogram (EEG), an electrooculogram (EOG), a submental electromyogram (EMG), an anterior tibialis EMG, and an electrocardiogram (ECG) (Rechtschaffen A, Kales A. A manual of standardized terminology, techniques and scoring system for sleep stages in human subjects. Washington D.C.: US Government Printing Office. National Institute of Health Publication; 1968). Nasal-oral airflow was measured using thermocouples. Abdominal and thoracic respiratory movements were recorded with respiratory effort belts using piezoelectric crystal sensors. Transcutaneous oxyhemoglobin saturation (SpO2) was monitored with finger pulse oximetry. A recording of sleep position was performed using video monitoring and snoring was recorded using a snore sensor. An experienced sleep physician, blinded to the study protocol, scored sleep recordings. Sleep architecture was analyzed according to standardized way (Rechtschaffen A, Kales A. A manual of standardized terminology, techniques and scoring system for sleep stages in human subjects. Washington D.C.: US Government Printing Office. National Institute of Health Publication; 1968). Unstimulated saliva samples were collected and biomarker levels measured in the morning prior to beginning and after 150 days of study. Ten minutes prior to collection of unstimulated saliva samples, individuals were asked to rinse orally with water. At the time of sample collection, study members were asked to relax for 5-15 minutes. They were then seated in a bent forward position in an ordinary chair and asked to put their tongues on the lingual surfaces of the upper incisors and allow the saliva to drip into sterile plastic (glass) tubes treated with […] of 2% sodium azide solution to prevent microbial decomposition of saliva. The tubes were held to the lower lip for 10 minutes resulting in a collection of 1-5 ml of saliva per individual."}, "[2]": {"test_system": "patients with idiopathic central sleep apnea", "assay": "Salivary biomarker levels before and after zolpidem treatment (commercial kits, NMR)", "assay_type": "in vivo, human", "settings": "unstimulated saliva, morning, after 150 days of study, mean", "method": "Idiopathic central sleep apnea was defined by central apnea and hypopnea index (CAHI)≧10 events per hour of sleep, and obstructive apnea/hypopnea index ≦5 events per hour of sleep. An apnea was defined as a cessation or reduction in peak oronasal airflow≧70% of baseline, lasting ≧15 s. Hypopnea was defined as a reduction in peak oronasal airflow ≧50%, ≧70% of baseline for ≧15 s, along with a ≧4% drop in SpO2 relative to pre-event baseline value. The apnea/hypopnea index was calculated for all events relative to total sleep time and documented separately for central and obstructive events. Central apneas and hypopneas comprised the central and obstructive apneas and hypopneas plus mixed apneas and hypopneas comprised the obstructive apnea-hypopnea index (OAHI). Exclusion criteria comprise such as clinical or echocardiographic diagnosis of systolic heart failure, diastolic cardiac dysfunction, or a history of transient ischemic attack or stroke. Those with a typical pattern of Cheyne Stokes respiration during sleep were also excluded. Patients with obstructive sleep apnea with an Apnea-Hypopnea Index of (AHI) ≧5 events per hour prior to continuous positive airway pressure device (CPAP) use, or a history of restless legs syndrome/periodic leg movements were also excluded. Patients with prior use of sedative agents such as zolpidem, acetazolamide, theophylline, medroxyprogesterone, or any opiate, were also excluded from the study to exclude comparative bias when evaluating subjective response to zolpidem. Patients with hypercapnic lung disease or those with obesity hypoventilation syndrome were also excluded. Subjects were given the Epworth Sleepiness Scale (ESS), and a physical exam followed by an 8-h diagnostic polysomnogram (PSG). […] Outpatient monitoring was conducted every four weeks to assess patients for side effects and for evaluation of daytime sleepiness, using the ESS. […] Nocturnal polysomnographic assessment using the Grass Aurora system was performed in a standard way consisting of an electroencephalogram (EEG), an electrooculogram (EOG), a submental electromyogram (EMG), an anterior tibialis EMG, and an electrocardiogram (ECG) (Rechtschaffen A, Kales A. A manual of standardized terminology, techniques and scoring system for sleep stages in human subjects. Washington D.C.: US Government Printing Office. National Institute of Health Publication; 1968). Nasal-oral airflow was measured using thermocouples. Abdominal and thoracic respiratory movements were recorded with respiratory effort belts using piezoelectric crystal sensors. Transcutaneous oxyhemoglobin saturation (SpO2) was monitored with finger pulse oximetry. A recording of sleep position was performed using video monitoring and snoring was recorded using a snore sensor. An experienced sleep physician, blinded to the study protocol, scored sleep recordings. Sleep architecture was analyzed according to standardized way (Rechtschaffen A, Kales A. A manual of standardized terminology, techniques and scoring system for sleep stages in human subjects. Washington D.C.: US Government Printing Office. National Institute of Health Publication; 1968). Unstimulated saliva samples were collected and biomarker levels measured in the morning prior to beginning and after 150 days of study. Ten minutes prior to collection of unstimulated saliva samples, individuals were asked to rinse orally with water. At the time of sample collection, study members were asked to relax for 5-15 minutes. They were then seated in a bent forward position in an ordinary chair and asked to put their tongues on the lingual surfaces of the upper incisors and allow the saliva to drip into sterile plastic (glass) tubes treated with […] of 2% sodium azide solution to prevent microbial decomposition of saliva. The tubes were held to the lower lip for 10 minutes resulting in a collection of 1-5 ml of saliva per individual. […]"}, "[3]": {"settings": "follow-up polysomnogram vs before treatment"}}}
{"smiles": "Cc1ccc(-c2nc3ccc(C)cn3c2CC(=O)N(C)C)cc1", "note": "[zolpidem]", "values": [{"measurement": "Excessive daytime sleepiness, measured by the Epworth Sleepiness Scale (ESS), change", "setting": "[1]; after vs before treatment", "result": "decreased"}, {"measurement": "central AHI (CAHI), change on follow-up polysomnogram", "setting": "[1]; [3]", "result": "significantly decreased"}, {"measurement": "sleep latency, change", "setting": "[1]; [3]", "result": "decreased"}, {"measurement": "stage 1, 3, and 4 sleep percentages, change", "setting": "[1]; [3]", "result": "decreased"}, {"measurement": "stage 2 percentages, change", "setting": "[1]; [3]", "result": "increased"}, {"measurement": "total number of arousals per hour, change with treatment use", "setting": "[1]; [3]", "result": "decreased"}, {"measurement": "Apnea hypopnea, After", "setting": "[1]; mean, 10 patients, zolpidem 10 mg orally each night, repeat PSG six to ten weeks after initiation, Before 32.6, P 0.0001", "result": 12.6}, {"measurement": "Epworth sleepiness score, After", "setting": "[1]; mean, zolpidem 10 mg orally each night, Before 13.7, P 0.0001", "result": 6.5}, {"measurement": "% TST stage 3 and 4, After", "setting": "[1]; mean, zolpidem 10 mg orally each night, repeat PSG six to ten weeks, Before 1.3, P 0.05", "result": 0.8, "unit": "%"}, {"measurement": "Total sleep time, After", "setting": "[1]; mean, zolpidem 10 mg orally each night, repeat PSG six to ten weeks, Before 4.6, P 0.005", "result": 6.3, "unit": "h"}, {"measurement": "% TST REM, After", "setting": "[1]; mean, zolpidem 10 mg orally each night, repeat PSG six to ten weeks, Before 10.4, P 0.05", "result": 14.5, "unit": "%"}, {"measurement": "% TST stage 1, After", "setting": "[1]; mean, zolpidem 10 mg orally each night, repeat PSG six to ten weeks, Before 34.6, P 0.05", "result": 21.3, "unit": "%"}, {"measurement": "Salivary Arginine, After Treatment", "setting": "[2]; Before Treatment 0.56, P 0.001", "result": 0.45, "unit": "µmol/mL"}, {"measurement": "Salivary Creatine, After Treatment", "setting": "[2]; Before Treatment 0.64, P 0.001", "result": 0.47, "unit": "µmol/mL"}, {"measurement": "Salivary Tyrosine, After Treatment", "setting": "[2]; Before Treatment 0.67, P 0.005", "result": 0.54, "unit": "µmol/mL"}, {"measurement": "Salivary CgA, After Treatment", "setting": "[2]; Before Treatment 13.68, P 0.0001", "result": 4.23, "unit": "pmol/mg protein"}, {"measurement": "Salivary Dihomo-linolenate, After Treatment", "setting": "[2]; Before Treatment 34.4, P 0.0001", "result": 27.1, "unit": "µmol/mL"}, {"measurement": "Salivary Linolenate, After Treatment", "setting": "[2]; Before Treatment 36.5, P 0.0001", "result": 21.2, "unit": "µmol/mL"}, {"measurement": "Salivary 3-methyl-2-oxobutyrate, After Treatment", "setting": "[2]; Before Treatment 61.2, P 0.005", "result": 54.1, "unit": "µmol/mL"}, {"measurement": "Salivary Annexin 1, After Treatment", "setting": "[2]; Before Treatment 72.1, P 0.0001", "result": 56.3, "unit": "ng/mL"}, {"measurement": "Salivary BDNF, After Treatment", "setting": "[2]; Before Treatment 345.8, P 0.0001", "result": 234.5, "unit": "pg/mL"}, {"measurement": "Salivary B-endorphin, After Treatment", "setting": "[2]; Before Treatment 2134.9, P 0.0001", "result": 1235.3, "unit": "pg/mL"}]}
